Experimental data as given in US20240300946A1, “EGFR INHIBITORS” (Blueprint Medicines Corporation, priority 2021, published 2024).

Tests used:
[1] = biological target: T1, EGFR (L858R T790 M C797S) (Homo sapiens, UniProt P00533, C797S/L858R/T790M); assay: Biochemical EGFR inhibition assay (Caliper mobility shift), LRTMCS mutant at 1 mM ATP; settings: read-out: LRTMCS (PH) IC50 (nM) @ 1 mM ATP (Num)
T1 construct: purchased SignalChem E10-122VG
Experimental: Inhibitory effects of the compounds of the disclosure were measured in biochemical assays that measure the phosphorylation activity of EGFR enzyme phosphorylates 2.5 micromolar 5-FAM-[…]-CONH2 peptide substrate (FL-Peptide 22, PerkinElmer, 760366) in the presence of adenosine-5′-triphosphate (ATP) and varying concentrations of the test compound in 100 mM 2-[4-(2-hydroxyethyl)piperazin-1-yl]ethanesulfonic acid (HEPES), pH 7.5, 10 mM MgCl2, 0.015% Brij-35, 1 mM dithiothreitol (DTT), 1.0% dimethylsulfoxide (DMSO). Assays were performed at 1.0 mM ATP or at ATP Km of the EGFR enzymes. Reactions proceeded until between 10% to 20% total peptides were phosphorylated at room temperature (25° C.) and were terminated with 35 mM 2,2′,2″,2′″-(ethane-1,2-diyldinitrilo)tetraacetic acid (EDTA). Product was detected using the Caliper mobility shift detection method where the phosphorylated peptide (product) and substrate were electrophoretically separated and measured. Percent activity was plotted against log concentration of compound and points to generate an apparent IC50. The following enzyme forms of EGFR were examples that were used in these assays: • EGFR WT (SignalChem, E10-112G) • EGFR (L858R T790 M C797S) (SignalChem, E10-122VG) • EGFR (d746-750) T790 M C797S (SignalChem, E10-122UG) • EGFR L858R (SignalChem, E10-122BG) • EGFR (d746-750) (SignalChem, E10-122JG)

[2] = tested on: phosphorylation of EGFR in NCI-H1975 cell line that harbors the EGFR L858R T790 M mutations; assay: NCI-H1975 pEGFR AlphaLISA assay; type: cell-based; settings: Homo sapiens, NCI-H1975, NCI-H1975 cells, p-EGFR (Tyr1068), 4-5 hours incubation; read-out: Ext pEGFR H1975 GMean IC50 (nM) Protocol: @ Pharmaron AlphaLISA (Num)
Experimental: Inhibitory effects of the compounds of the disclosure were evaluated in cellular assays that measure level of intracellular phosphorylation of EGFR in NCI-H1975 cell line that harbors the EGFR L858R T790 M mutations (ATCC, CRL-5908) using AlphaLISA sureFire ultra p-EGFR (Tyr1068) assay kit (PerkinElmer, ALSU-PEGFR-A50K). The NCI-H1975 cells were seeded at 12.5K/well in 22 μL into 384 well opti plate (PerkinElmer, 6007299) and adhering overnight at 37° C./5% CO2. On the next day, the test compounds and DMSO control were added into H1975 cell plate followed by incubation at 37° C./5% CO2 for 4-5 hours. The cells were then spin down in the 384-well plate and lysed with 10 μL of 1× AlphaLISA lysis buffer followed by shaking at 600 rpm for 10 minutes at room temperature. After that, 5 μL of an acceptor bead mix was added to each well followed by incubation at room temperature for 1.5-2 h in dark. Then 5 μL of a donor bead mix was added to each well followed by overnight incubation at room temperature in dark. On the next day, the plate was read at a compatible plate reader to obtain pEGFR signal. Percent of pEGFR inhibition was plotted against log concentration of compounds to generate IC50 values.

T1 sequence (P00533 25-1210 T790M/C797S/L858R): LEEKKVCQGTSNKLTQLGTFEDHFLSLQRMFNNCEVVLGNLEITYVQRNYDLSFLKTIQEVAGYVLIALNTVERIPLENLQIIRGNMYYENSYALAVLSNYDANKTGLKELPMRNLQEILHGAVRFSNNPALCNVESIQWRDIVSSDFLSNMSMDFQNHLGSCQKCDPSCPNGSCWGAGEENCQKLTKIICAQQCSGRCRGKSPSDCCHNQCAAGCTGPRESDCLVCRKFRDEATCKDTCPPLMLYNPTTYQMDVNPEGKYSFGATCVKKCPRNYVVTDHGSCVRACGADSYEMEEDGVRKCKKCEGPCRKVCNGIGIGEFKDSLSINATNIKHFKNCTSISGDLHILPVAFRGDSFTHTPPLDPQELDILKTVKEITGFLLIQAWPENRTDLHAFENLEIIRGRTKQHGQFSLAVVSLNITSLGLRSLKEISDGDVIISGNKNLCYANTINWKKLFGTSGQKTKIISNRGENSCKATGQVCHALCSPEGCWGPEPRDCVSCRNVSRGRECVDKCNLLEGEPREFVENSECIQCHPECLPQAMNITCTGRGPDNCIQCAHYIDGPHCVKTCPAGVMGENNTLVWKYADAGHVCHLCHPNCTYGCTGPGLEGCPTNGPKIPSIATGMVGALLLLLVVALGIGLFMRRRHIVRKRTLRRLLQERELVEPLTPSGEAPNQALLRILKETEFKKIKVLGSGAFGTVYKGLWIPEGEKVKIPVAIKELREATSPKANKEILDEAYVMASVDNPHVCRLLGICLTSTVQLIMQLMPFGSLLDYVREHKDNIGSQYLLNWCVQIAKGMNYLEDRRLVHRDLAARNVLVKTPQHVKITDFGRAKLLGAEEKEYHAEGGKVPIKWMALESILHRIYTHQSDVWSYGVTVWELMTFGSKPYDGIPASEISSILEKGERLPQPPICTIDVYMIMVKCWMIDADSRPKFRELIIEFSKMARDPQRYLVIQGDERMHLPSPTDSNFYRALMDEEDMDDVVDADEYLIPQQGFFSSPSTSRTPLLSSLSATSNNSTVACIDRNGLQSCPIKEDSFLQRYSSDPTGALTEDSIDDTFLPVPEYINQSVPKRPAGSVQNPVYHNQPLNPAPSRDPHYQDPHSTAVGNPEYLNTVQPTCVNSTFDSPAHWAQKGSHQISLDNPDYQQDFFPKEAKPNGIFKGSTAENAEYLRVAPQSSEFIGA

Structure (SMILES)	IC50 [1]	IC50 [2]
CC(C)c1cnc(N2CC(CS(C)(=O)=O)C2)c2cnc(Nc3ccnc(C4CCC4)n3)cc12 [Example 5, N-(2-cyclobutylpyrimidin-4-yl)-5-isopropyl-8-(3-((methylsulfonyl)methyl)azetidin-1-yl)-2,7-naphthyridin-3-amine]	30 to 100 nM	> 50 nM
CC(C)c1cnc(N2CC(CS(C)(=O)=O)C2)c2cnc(Nc3ccnc([C@H]4C[C@@H](O)C4)n3)cc12 [Example 6, (1s,3s)-3-(4-((5-isopropyl-8-(3-((methylsulfonyl)methyl)azetidin-1-yl)-2,7-naphthyridin-3-yl)amino)pyrimidin-2-yl)cyclobutan-1-ol]	30 to 100 nM	> 50 nM
CC(C)c1cnc(N2CC(CS(C)(=O)=O)C2)c2cnc(Nc3ccnc([C@H]4C[C@H](O)C4)n3)cc12 [Example 7, (1r,3r)-3-(4-((5-isopropyl-8-(3-((methylsulfonyl)methyl)azetidin-1-yl)-2,7-naphthyridin-3-yl)amino)pyrimidin-2-yl)cyclobutan-1-ol]	15 to 20 nM	> 50 nM
Cc1ncc(-c2nccc(Nc3cc4c(C(C)C)ncc(N5CC(CS(C)(=O)=O)C5)c4cn3)n2)s1 [Example 8, 5-isopropyl-8-(3-((methylsulfonyl)methyl)azetidin-1-yl)-N-(2-(2-methylthiazol-5-yl)pyrimidin-4-yl)-2,6-naphthyridin-3-amine]	≤ 15 nM	< 10 nM
CC(C)c1ncc(N2CC(CS(C)(=O)=O)C2)c2cnc(Nc3ccnc(-c4cnn(C)c4)n3)cc12 [Example 9, 5-isopropyl-N-(2-(1-methyl-1H-pyrazol-4-yl)pyrimidin-4-yl)-8-(3-((methylsulfonyl)methyl)azetidin-1-yl)-2,6-naphthyridin-3-amine]	≤ 15 nM	30 to 50 nM
CC(C)c1ccc(N2CC(CS(C)(=O)=O)C2)c2cnc(Nc3ccnc(-c4cnn(C)c4)n3)cc12 [Example 10, 5-isopropyl-N-(2-(1-methyl-1H-pyrazol-4-yl)pyrimidin-4-yl)-8-(3-((methylsulfonyl)methyl)azetidin-1-yl)isoquinolin-3-amine]	≤ 15 nM	10 to 20 nM
COc1ccc(-c2nccc(Nc3cc4c(C(C)C)ccc(N5CC(CS(C)(=O)=O)C5)c4cn3)n2)cn1 [Example 11, 5-isopropyl-N-(2-(6-methoxypyridin-3-yl)pyrimidin-4-yl)-8-(3-((methylsulfonyl)methyl)azetidin-1-yl)isoquinolin-3-amine]	30 to 100 nM	> 50 nM
CCS(=O)(=O)CC1CN(c2ccc(C(C)C)c3cc(Nc4ccnc(-c5cnn(C)c5)n4)ncc23)C1 [Example 12, 8-(3-((ethylsulfonyl)methyl)azetidin-1-yl)-5-isopropyl-N-(2-(1-methyl-1H-pyrazol-4-yl)pyrimidin-4-yl)isoquinolin-3-amine]	≤ 15 nM	10 to 20 nM
CC(C)c1ccc(N2CC(CS(C)(=O)=O)C2)c2cnc(Nc3ccnc(-c4cccnc4)n3)cc12 [Example 13, 5-isopropyl-8-(3-((methylsulfonyl)methyl)azetidin-1-yl)-N-(2-(pyridin-3-yl)pyrimidin-4-yl)isoquinolin-3-amine]	≤ 15 nM	10 to 20 nM
CC(C)c1ccc(N2CC(CS(C)(=O)=O)C2)c2cnc(Nc3ccnc(-c4cncc(Cl)c4)n3)cc12 [Example 14, N-(2-(5-chloropyridin-3-yl)pyrimidin-4-yl)-5-isopropyl-8-(3-((methylsulfonyl)methyl)azetidin-1-yl)isoquinolin-3-amine]	30 to 100 nM	> 50 nM
CC(C)c1ccc(N2CC(CS(C)(=O)=O)C2)c2cnc(Nc3ccnc(C4=CCC5(CC4)OCCO5)n3)cc12 [Example 15, N-(2-(1,4-dioxaspiro[4.5]dec-7-en-8-yl)pyrimidin-4-yl)-5-isopropyl-8-(3-((methylsulfonyl)methyl)azetidin-1-yl)isoquinolin-3-amine]	15 to 20 nM	30 to 50 nM
CC(C)c1ccc(N2CC(CS(C)(=O)=O)C2)c2cnc(Nc3ccnc(C4CC(F)C4)n3)cc12 (stereo not drawn) [Example 26, N′-(2-(3-fluorocyclobutyl)pyrimidin-4-yl)-5-isopropyl-8-(3-((methylsulfonyl)methyl)azetidin-1-yl)isoquinolin-3-amine]	30 to 100 nM	> 50 nM
